Columns and labels:
[1] = target: Amido phosphoribosyltransferase (Homo sapiens, UniProt Q06203); assay: MTX-agarose affinity chromatography of cell lysate, MS identification; format: binding; set-up: endogenous in cells; host or cells: HEK 293 (also Jurkat, K562, A431); conditions: lysates from HEK293, Jurkat, K562 and A431
Procedure: (§1) After incubation for 30 minutes at 4° C. with shaking, the lysates were clarified by centrifugation (27,000×g). In some experiments, cells were lysed using 20 strokes of a Dounce® homogenizer in the absence of detergents. […] While optimizing the protocol, however, several experimental variations were tested on cell lysates including concentration by ammonium sulfate precipitation, or removal of nucleic acid with Streptomycin sulfate. In such cases, the protein sample was desalted using a PD 10 protein-desalting column (Pharmacia), which had been pre-equilibrated in the same buffer (10 mM potassium phosphate pH 7.5)
(§2) Affinity Chromatography: The desalted lysate was loaded onto a column of pre-equilibrated MTX-agarose (Sigma, 50 μL bed volume) or sepharose 4B agarose as a negative control. The lysates were allowed to slowly flow through the matrix under gravity flow. […] Retentates from the microcons were then loaded onto SDS-PAGE 4%-15% gradient mini gels (Bio-Rad). […]
(§3) The peptides were then separated by reverse phase chromatography on C18 resin and directly injected into a mass spectrometer using an automated sample-loading device from 96 well plates. […] The spectra generated were analyzed on a custom-built multi-node server platform (RADARS, ProteoMetrics), which uses two database searching programs, Sonar (ProteoMetrics) and Mascot (Matrix Sciences). […]

[2] = tested on: purine de novo synthesis in leukemia cells; conditions: on treatment with Methotrexate; cited from earlier work
[3] = target: T1, Pterin-4-alpha-carbinolamine dehydrogenase (PCD) (Homo sapiens, UniProt P61457); assay: MTX-agarose affinity chromatography of cell lysate, MS identification; format: binding; conditions: HEK 293 lysate
T1 construct: endogenous in cells; host or cells: HEK 293
T1 sequence (P61457 1-104): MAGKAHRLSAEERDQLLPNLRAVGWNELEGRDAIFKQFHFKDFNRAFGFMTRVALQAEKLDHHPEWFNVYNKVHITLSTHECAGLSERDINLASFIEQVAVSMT
Procedure: as §1, §2, §3

[4] = target: T2, Propionyl CoA carboxylase (Homo sapiens, UniProt P05165+P05166); assay: as above; format: binding; conditions: HEK 293 lysate
T2 construct: endogenous in cells; host or cells: HEK 293
T2 sequence (P05165 53-728): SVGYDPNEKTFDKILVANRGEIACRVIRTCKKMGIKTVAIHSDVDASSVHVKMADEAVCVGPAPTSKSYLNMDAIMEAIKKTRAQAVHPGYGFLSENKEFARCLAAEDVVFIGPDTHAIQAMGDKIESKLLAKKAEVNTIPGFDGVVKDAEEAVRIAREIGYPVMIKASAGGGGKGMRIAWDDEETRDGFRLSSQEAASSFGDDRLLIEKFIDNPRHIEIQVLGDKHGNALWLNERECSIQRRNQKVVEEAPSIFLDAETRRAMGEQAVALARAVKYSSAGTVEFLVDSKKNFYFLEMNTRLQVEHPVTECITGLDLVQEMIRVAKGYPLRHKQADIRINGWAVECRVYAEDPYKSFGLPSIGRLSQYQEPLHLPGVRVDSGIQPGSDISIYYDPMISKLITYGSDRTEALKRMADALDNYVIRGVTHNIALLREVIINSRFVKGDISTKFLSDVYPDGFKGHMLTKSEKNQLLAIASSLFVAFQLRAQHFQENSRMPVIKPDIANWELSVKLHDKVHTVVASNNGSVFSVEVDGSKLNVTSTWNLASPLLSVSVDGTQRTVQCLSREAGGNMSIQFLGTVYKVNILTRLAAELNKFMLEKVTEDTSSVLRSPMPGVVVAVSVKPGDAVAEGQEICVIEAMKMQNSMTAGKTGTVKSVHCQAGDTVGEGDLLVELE
T2 sequence (P05166 29-539): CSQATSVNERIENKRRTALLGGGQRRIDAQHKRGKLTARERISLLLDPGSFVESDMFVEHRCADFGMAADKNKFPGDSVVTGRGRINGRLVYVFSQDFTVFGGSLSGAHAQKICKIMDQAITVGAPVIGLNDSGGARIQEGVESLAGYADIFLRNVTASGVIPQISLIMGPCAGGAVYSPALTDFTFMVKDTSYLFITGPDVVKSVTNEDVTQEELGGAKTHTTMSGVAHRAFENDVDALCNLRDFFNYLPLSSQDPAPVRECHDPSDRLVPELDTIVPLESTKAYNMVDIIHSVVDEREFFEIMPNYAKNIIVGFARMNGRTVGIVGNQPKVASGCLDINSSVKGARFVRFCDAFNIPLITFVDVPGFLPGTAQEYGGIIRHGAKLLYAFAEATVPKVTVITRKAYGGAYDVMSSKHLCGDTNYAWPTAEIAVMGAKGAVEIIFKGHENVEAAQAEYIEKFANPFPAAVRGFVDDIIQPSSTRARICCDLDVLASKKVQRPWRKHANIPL
Procedure: as §1, §2, §3

HPRT = target: T3, HPRT (Homo sapiens, UniProt P00492); conditions: cited from earlier work
T3 sequence (P00492 1-218): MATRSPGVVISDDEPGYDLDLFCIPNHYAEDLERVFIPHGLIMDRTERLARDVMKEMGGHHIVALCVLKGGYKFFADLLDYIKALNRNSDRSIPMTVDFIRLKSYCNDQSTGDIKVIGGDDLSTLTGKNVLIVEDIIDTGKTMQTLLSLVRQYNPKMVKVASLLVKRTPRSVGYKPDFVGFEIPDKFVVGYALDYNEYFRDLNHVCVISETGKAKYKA

SAICAR synthetase = target: T4, SAICAR synthetase (Homo sapiens, UniProt P22234); assay: MTX-agarose affinity chromatography of cell lysate, MS identification; format: binding; conditions: HEK 293 lysate; bifunctional enzyme with AIR carboxylase
T4 construct: endogenous in cells; host or cells: HEK 293
T4 sequence (P22234 1-425): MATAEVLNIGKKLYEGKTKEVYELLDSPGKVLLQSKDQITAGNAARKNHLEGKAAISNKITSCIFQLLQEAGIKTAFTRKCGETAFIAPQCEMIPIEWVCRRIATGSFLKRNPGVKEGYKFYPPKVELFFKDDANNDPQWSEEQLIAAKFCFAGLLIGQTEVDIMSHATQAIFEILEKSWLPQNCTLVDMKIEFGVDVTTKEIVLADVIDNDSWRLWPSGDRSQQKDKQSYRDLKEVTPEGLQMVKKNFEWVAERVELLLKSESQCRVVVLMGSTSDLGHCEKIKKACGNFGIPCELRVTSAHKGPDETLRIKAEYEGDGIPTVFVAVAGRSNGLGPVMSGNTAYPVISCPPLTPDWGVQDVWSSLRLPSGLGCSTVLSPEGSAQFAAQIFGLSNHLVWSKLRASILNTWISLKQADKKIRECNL
Procedure: as §1, §2, §3

[5] = target: T5, Hypoxanthine phosphoribosyltransferase (HPRT) (Homo sapiens, UniProt P00492); assay: as above; format: binding; conditions: HEK 293 lysate, lane 9
T5 construct: endogenous in cells; host or cells: HEK 293
T5 sequence (P00492 1-218): T3 sequence (P00492 1-218)
Procedure: as §1, §2, §3

Nudix 1 = target: T6, Nudix 1 (Homo sapiens, UniProt P36639); assay: as above; format: binding; conditions: HEK 293 lysate
T6 construct: endogenous in cells; host or cells: HEK 293
Procedure: as §1, §2, §3

Deoxycytidine Kinase = target: T7, Deoxycytidine Kinase (Homo sapiens, UniProt P27707); assay: as above; format: binding; conditions: HEK 293 lysate
T7 construct: endogenous in cells; host or cells: HEK 293
T7 sequence (P27707 whole entry): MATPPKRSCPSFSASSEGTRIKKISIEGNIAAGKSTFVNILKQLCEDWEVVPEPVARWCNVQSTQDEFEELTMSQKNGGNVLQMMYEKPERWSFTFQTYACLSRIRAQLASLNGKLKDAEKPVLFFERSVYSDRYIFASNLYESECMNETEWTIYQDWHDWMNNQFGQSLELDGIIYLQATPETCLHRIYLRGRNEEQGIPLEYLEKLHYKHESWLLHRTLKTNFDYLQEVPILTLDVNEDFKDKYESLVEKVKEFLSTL
Procedure: as §1, §2, §3

Chain of Amido phosphoribosyltransferase (Q06203 12-517): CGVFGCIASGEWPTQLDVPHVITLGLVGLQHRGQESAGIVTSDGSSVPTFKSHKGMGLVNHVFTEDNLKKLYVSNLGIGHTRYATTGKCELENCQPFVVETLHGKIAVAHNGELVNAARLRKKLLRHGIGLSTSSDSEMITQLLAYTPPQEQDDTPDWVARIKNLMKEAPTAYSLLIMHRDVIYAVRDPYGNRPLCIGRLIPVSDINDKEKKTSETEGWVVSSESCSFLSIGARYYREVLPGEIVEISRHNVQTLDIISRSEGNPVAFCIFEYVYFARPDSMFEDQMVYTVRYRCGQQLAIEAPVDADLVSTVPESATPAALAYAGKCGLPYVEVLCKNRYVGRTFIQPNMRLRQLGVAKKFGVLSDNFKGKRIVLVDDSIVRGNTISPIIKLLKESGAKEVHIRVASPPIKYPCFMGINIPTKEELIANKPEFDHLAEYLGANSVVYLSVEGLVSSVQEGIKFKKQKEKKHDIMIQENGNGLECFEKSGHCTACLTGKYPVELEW

CN(Cc1cnc2nc(N)nc(N)c2n1)c1ccc(C(=O)N[C@@H](CCC(=O)O)C(=O)O)cc1 [Methotrexate]
Protein identified by Mass Spec.; New MTX interactor [1]: found to interact with Methotrexate | Protein identified by Mass Spec.; New MTX interactor ([1]; listed as MTX): ✓ | accumulation of 5-phosphoribosyl-1-pyrophosphate [2]: 3-4 fold | de novo purine pathway [2]: completely blocked | Protein identified by Mass Spec.; New MTX interactor [3]: binds directly to Methotrexate | Protein identified by Mass Spec.; New MTX interactor ([3]; listed as MTX): ✓ | Association with the Methotrexate matrix [4]: pulled down consistently | effect on activity of HPRT (HPRT): can reduce the activity of HPRT | Association with the Methotrexate matrix (SAICAR synthetase): a single band contained peptides from both domains | Protein identified by Mass Spec.; New MTX interactor [5]: identified in the pull down in lane 9 | Protein identified by Mass Spec.; New MTX interactor ([5]; listed as MTX): ✓ | Association with the Methotrexate matrix (Nudix 1): consistently found | Association with the Methotrexate matrix (Deoxycytidine Kinase): indirect interaction with Methotrexate
